Measured values published in ChEMBL document CHEMBL5365481, “Design, Synthesis, and Activity Evaluation of Novel Dual-Target Inhibitors with Antifungal and Immunoregulatory Properties” (J Med Chem, 2023).
pIC50, pKd: −log10 of the molar value. ≈ marks a conversion by molar mass, not a printed value. Calls of active or inactive are those of the source. No cut-off for these calls is given here.

Assays:
[1] = test system: Candida albicans; assay: Antifungal activity against Candida albicans ATCC SC5314 assessed as inhibition of fungal growth incubated for 72 hrs by CLSI based liquid medium microdilution method; type: functional
[2] = test system: Aspergillus fumigatus; assay: Antifungal activity against Aspergillus fumigatus KM8001 assessed as inhibition of fungal growth incubated for 72 hrs by CLSI based liquid medium microdilution method; type: functional
[3] = test system: Candida albicans; assay: Antifungal activity against fluconazole-resistant Candida albicans 17# assessed as inhibition of fungal growth incubated for 72 hrs by CLSI based liquid medium microdilution method; type: functional
[4] = test system: Candida albicans; assay: Antifungal activity against fluconazole-resistant Candida albicans 901 assessed as inhibition of fungal growth incubated for 72 hrs by CLSI based liquid medium microdilution method; type: functional
[5] = test system: Candida albicans; assay: Antifungal activity against fluconazole-resistant Candida albicans 904 assessed as inhibition of fungal growth incubated for 72 hrs by CLSI based liquid medium microdilution method; type: functional
[6] = biological target: T1, Lanosterol 14-alpha demethylase (Candida albicans (strain SC5314 / ATCC MYA-2876) (Yeast), UniProt P10613); assay: Inhibition of Candida albicans ATCC SC5314 CYP51 assessed as ergosterol content at 4 ug/ml measured after 16 hrs by GC-MS analysis (reference value: 92.71%); set-up: scale not given: the % may be the effect or the level left; conditions: at 4 µg/mL
[7] = biological target: T1, Lanosterol 14-alpha demethylase; assay: Inhibition of Candida albicans ATCC SC5314 CYP51 assessed as lanosterol content at 4 ug/ml measured after 16 hrs by GC-MS analysis relative to control; set-up: scale not given: the % may be the effect or the level left; conditions: at 4 µg/mL
[8] = biological target: T1, Lanosterol 14-alpha demethylase; assay: Inhibition of Candida albicans ATCC SC5314 CYP51 assessed as eburicol content at 4 ug/ml measured after 16 hrs by GC-MS analysis (Rvb= 3.47%); set-up: scale not given: the % may be the effect or the level left; conditions: at 4 µg/mL
[9] = test system: Candida albicans; assay: Antifungal activity against Candida albicans ATCC SC5314 assessed as decrease in fungal cell density at 1 microM/ml incubated for 48 hrs by absorbance based assay; type: functional, organism-based
[10] = test system: Candida albicans; assay: Induction of mitochondrial membrane depolarization in Candida albicans ATCC SC5314 assessed as depolarized cells at 1 microM/ml incubated for 24 hrs by JC-1 staining based flow cytometry assay (reference value: 0.3 to 5.1%); type: functional
[11] = test system: Candida albicans; assay: Induction of apoptosis in Candida albicans ATCC SC5314 assessed as normal cells at 1 microM/ml incubated for 48 hrs by Hoechst 33258/PI staining based flow cytometry (Rvb= 94.8 +/- 0.3%); type: functional
[12] = test system: Candida albicans; assay: In vivo antifungal activity against Candida albicans ATCC SC5314 infected in BALB/c mouse assessed as decrease in number of exogenous fungal cells at 10 ug, ip for 14 days by H and E staining based microscopy; type: functional, organism-based; conditions: dose 10.0 µg, time 14.0 day
[13] = test system: Candida albicans; assay: In vivo antifungal activity against Candida albicans ATCC SC5314 infected in BALB/c mouse assessed as reversal of cell morphology to normal state at 10 ug, ip for 14 days by GMS staining based microscopy; type: functional, organism-based; conditions: dose 10.0 µg, time 14.0 day
[14] = test system: Candida albicans; assay: In vivo antifungal activity against Candida albicans ATCC SC5314 infected in BALB/c mouse assessed as decrease in necrotic cell debris in tissue gap at 10 ug, ip for 14 days by GMS staining based microscopy; type: functional, organism-based; conditions: dose 10.0 µg, time 14.0 day
[15] = Toxicity in BALB/c mouse infected with Candida albicans ATCC SC5314 assessed as morphological changes in heart at 10 ug, ip for 14 days by H and E staining based microscopy; type: organism-based; conditions: in vivo, 336 h, dose 10 µg, time 14 day
[16] = Toxicity in BALB/c mouse infected with Candida albicans ATCC SC5314 assessed as morphological changes in liver at 10 ug, ip for 14 days in presence of Biphenyl isopropyl ester by H and E staining based microscopy; type: organism-based; conditions: in vivo, 336 h, dose 10 µg, time 14 day
[17] = Toxicity in BALB/c mouse infected with Candida albicans ATCC SC5314 assessed as morphological changes in spleen at 10 ug, ip for 14 days in presence of Biphenyl isopropyl ester by H and E staining based microscopy; type: organism-based; conditions: in vivo, 336 h, dose 10 µg, time 14 day
[18] = Toxicity in BALB/c mouse infected with Candida albicans ATCC SC5314 assessed as morphological changes in kidney at 10 ug, ip for 14 days in presence of Biphenyl isopropyl ester by H and E staining based microscopy; type: organism-based; conditions: in vivo, 336 h, dose 10 µg, time 14 day
[19] = Toxicity in BALB/c mouse infected with Candida albicans ATCC SC5314 assessed as plasma ALT level at 10 ug, ip for 14 days in presence of Biphenyl isopropyl ester; type: organism-based; conditions: in vivo, 336 h, dose 10 µg, time 14 day
[20] = Toxicity in BALB/c mouse infected with Candida albicans ATCC SC5314 assessed as plasma BUN level at 10 ug, ip for 14 days in presence of Biphenyl isopropyl ester; type: organism-based; conditions: in vivo, 336 h, dose 10 µg, time 14 day
[21] = test system: Candida albicans; assay: In vivo antifungal activity against Candida albicans ATCC SC5314 infected in BALB/c mouse assessed as decrease in NLRP3 expression level at 10 ug, ip for 14 days in presence of Biphenyl isopropyl ester by Western blot analysis; type: functional, organism-based; conditions: dose 10.0 µg, time 14.0 day
[22] = test system: Candida albicans; assay: In vivo antifungal activity against Candida albicans ATCC SC5314 infected in BALB/c mouse assessed as decrease in IFN-gamma expression level at 10 ug, ip for 14 days in presence of Biphenyl isopropyl ester by immunohistochemical analysis; type: functional, organism-based; conditions: dose 10.0 µg, time 14.0 day
[23] = test system: Candida albicans; assay: In vivo antifungal activity against Candida albicans ATCC SC5314 infected in BALB/c mouse assessed as decrease in PD-L1 expression level at 10 ug, ip for 14 days in presence of Biphenyl isopropyl ester by Western blot analysis; type: functional, organism-based; conditions: dose 10.0 µg, time 14.0 day
[24] = test system: Candida albicans; assay: In vivo antifungal activity against Candida albicans ATCC SC5314 infected in BALB/c mouse assessed as fold increase in CD3+ expression level in T cells at 10 ug, ip for 14 days in presence of Biphenyl isopropyl ester by immunohistochemical analysis; type: functional, T-cell; conditions: dose 10 µg, time 14 day
[25] = biological target: Programmed cell death protein 1/Programmed cell death 1 ligand 1 (Homo sapiens, UniProt Q9NZQ7); assay: Inhibition of PD-1/PD-L1 interaction (unknown origin) incubated for 15 mins by ELISA; type: protein-complex assay
[26] = biological target: Programmed cell death 1 ligand 1 (Homo sapiens, UniProt Q9NZQ7); assay: Binding affinity to PD-L1 (unknown origin) assessed as dissociation constant by SPR analysis
[27] = test system: Cell membrane; assay: Induction of cell membrane integrity disruption in Candida albicans ATCC SC5314 assessed as decrease in cell membrane thickness at 1 microM/ml incubated for 48 to 72 hrs by TEM analysis; type: subcellular; conditions: time 48-72 hrs
[28] = test system: Cell membrane; assay: Induction of cell membrane integrity disruption in Candida albicans ATCC SC5314 assessed as cell destruction at 1 microM/ml incubated for 96 hrs by TEM analysis; type: subcellular
[29] = test system: Candida albicans; assay: In vivo antifungal activity against Candida albicans ATCC SC5314 infected in BALB/c mouse assessed as decrease in PD-L1 expression level at 10 ug, ip for 14 days by immunohistochemical analysis; type: functional, organism-based; conditions: dose 10.0 µg, time 14.0 day
[30] = test system: Candida albicans; assay: In vivo antifungal activity against Candida albicans ATCC SC5314 infected in BALB/c mouse assessed as fold increase in CD8+ expression level in T cells at 10 ug, ip for 14 days by immunohistochemical analysis; type: functional
[31] = test system: Candida albicans; assay: In vivo antifungal activity against Candida albicans ATCC SC5314 infected in BALB/c mouse assessed as fold increase in CD3+ expression level in T cells at 10 ug, ip for 14 days by immunohistochemical analysis; type: functional, T-cell; conditions: dose 10 µg, time 14 day

T1 sequence (P10613 whole entry): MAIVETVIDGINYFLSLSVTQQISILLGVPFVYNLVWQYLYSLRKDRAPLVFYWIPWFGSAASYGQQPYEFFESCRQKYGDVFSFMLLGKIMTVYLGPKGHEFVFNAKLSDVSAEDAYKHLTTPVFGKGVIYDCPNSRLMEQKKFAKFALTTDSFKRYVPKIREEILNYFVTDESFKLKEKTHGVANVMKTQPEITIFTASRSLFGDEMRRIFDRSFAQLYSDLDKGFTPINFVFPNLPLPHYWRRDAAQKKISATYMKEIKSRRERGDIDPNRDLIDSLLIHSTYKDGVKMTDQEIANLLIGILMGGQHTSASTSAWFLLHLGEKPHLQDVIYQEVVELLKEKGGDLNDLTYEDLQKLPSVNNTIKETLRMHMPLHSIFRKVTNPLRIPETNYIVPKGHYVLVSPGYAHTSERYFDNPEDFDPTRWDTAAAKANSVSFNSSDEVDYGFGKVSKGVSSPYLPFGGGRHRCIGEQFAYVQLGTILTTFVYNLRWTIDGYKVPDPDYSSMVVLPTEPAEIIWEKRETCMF
Programmed cell death 1 ligand 1, sequence (Q9NZQ7 whole entry): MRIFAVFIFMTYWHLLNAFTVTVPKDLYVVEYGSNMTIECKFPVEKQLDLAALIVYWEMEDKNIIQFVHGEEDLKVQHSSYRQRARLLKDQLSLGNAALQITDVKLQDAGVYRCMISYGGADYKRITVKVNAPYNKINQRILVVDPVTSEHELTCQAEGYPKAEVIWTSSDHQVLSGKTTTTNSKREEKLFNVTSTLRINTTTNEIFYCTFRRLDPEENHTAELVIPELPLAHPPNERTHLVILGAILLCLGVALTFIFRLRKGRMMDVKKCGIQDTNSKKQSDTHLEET
Programmed cell death protein 1/Programmed cell death 1 ligand 1, sequence (Q15116 whole entry): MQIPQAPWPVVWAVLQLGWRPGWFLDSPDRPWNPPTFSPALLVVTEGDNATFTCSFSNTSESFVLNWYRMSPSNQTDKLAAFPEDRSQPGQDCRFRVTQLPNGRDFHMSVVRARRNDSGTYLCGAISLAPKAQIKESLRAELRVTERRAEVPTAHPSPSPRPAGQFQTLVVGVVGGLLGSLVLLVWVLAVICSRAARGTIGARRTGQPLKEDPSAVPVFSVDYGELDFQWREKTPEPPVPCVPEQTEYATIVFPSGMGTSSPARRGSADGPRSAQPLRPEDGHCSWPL
Programmed cell death protein 1/Programmed cell death 1 ligand 1, sequence (Q9NZQ7 whole entry): as the sequence (Q9NZQ7 whole entry) above

| Compound | MIC50 [1] [µg/mL] | MIC50 [2] [µg/mL] | MIC50 [3] [µg/mL] | MIC50 [4] [µg/mL] | MIC50 [5] [µg/mL] | Activity [6] [%] | Activity [7] [%] | Activity [8] [%] | Activity [9] | Activity [10] [%] | Activity [11] [%] | Activity [12] | Activity [13] | Activity [14] | Activity [15] | pIC50 [25] | pKd [26] | Activity [29] | fold change (FC) [31] | other results |
| --- | --- | --- | --- | --- | --- | --- | --- | --- | --- | --- | --- | --- | --- | --- | --- | --- | --- | --- | --- | --- |
| OC(Cn1cncn1)(Cn1cncn1)c1ccc(F)cc1F [FLUCONAZOLE] | 0.5 (≈ 1.63 µM) | > 8 | > 8 | > 8 | > 8 | 17.84 | 30.06 | 46.52 | Active | 0.28 | 44.6 | Active | Active | Active | Non-Toxic |  |  |  |  | Activity [16]: Non-Toxic; Activity [17]: Non-Toxic; Activity [18]: Non-Toxic; Activity [19]: 37.2 IU/L; Activity [20]: 22.8 nmol/L; Activity [21]: Active; Activity [22]: Active; Activity [23]: Active; fold change (FC) [24]: 1.46 |
| CC(=O)c1ccc(C(=O)N2CCC(NC(=O)c3nc(-n4cncn4)c4ccccc4n3)CC2)cc1 | 0.25 (≈ 0.532 µM) | 1 (≈ 2.13 µM) | 1 (≈ 2.13 µM) | 4 (≈ 8.52 µM) | 2 (≈ 4.26 µM) | 18.64 | 32.47 | 43.15 | Active | 1.27 | 42 | Active | Active | Active | Non-Toxic | 7.77 | 7.18 | Active | 1.46 | Activity [27]: Active; Activity [28]: Active; Activity ([30]; T-cell, dose 10.0 µg, time 14.0 day): Active |
| CC(C)c1ccc(C(=O)N2CCC(NC(=O)c3nc(-n4ccnc4)c4ccccc4n3)CC2)cc1 | 0.25 (≈ 0.534 µM) | 2 (≈ 4.27 µM) | 2 (≈ 4.27 µM) | 4 (≈ 8.54 µM) | > 8 | 20.92 | 29.53 | 45.04 | Active | 0.1 | 45.3 | Active | Active | Active | Non-Toxic | 7.41 | 7.22 | Active | 1.46 | fold change (FC) ([30]; dose 10 µg, time 14 day): 1.46 |
